From patent publication US7067545B1, “Remedies for spinocerebellar ataxia and compositions for treating spinocerebellar ataxia” (Meiji Seika Kaisha Ltd., priority 1998, dated 2006)
Like-named read-outs stand apart in the source and are kept apart here.

Key:
[1] = mouse, in vivo, cited from earlier work
drug induced ataxia mice = experiment: Effect on drug induced (cytosine arabinoside) ataxia mice, open-field test; format: in vivo; conditions: for Falling Index (falling score/movement score) / Movement Score: 30 min after administration, observed 30 min, mean ± standard error
Experimental: Ataxia mice prepared by repeated administration of cytosine arabinoside 50 mg/kg into male mice, 1, 2 and 3-day old, respectively, were used at 6-7-week old in the experiments (Simada, M. et al. Arch. Neurol., 32, 555-559, 1975 and Matsui, K. et al. Exp. Anim., 32, 13-19, 1983).
Improving effects of drugs on ataxia were evaluated according to the methods of Yamamoto et al. (Yamamoto and Shimizu, Eur. J. Pharmacol. 1.66, 295-297, 1989) and Matsui et al. (Matsui et al. Eur. J. Pharmacol., 254, 295-297, 1994; Neurosci. Lett., 212, 115-118, 1996) as follows.
(§1) The open-field apparatus with a 70 cm square filed surrounded by a 15 cm high wall was used. The floor of the field was marked out into 49 equal grids (each grid 10 cm×10 cm). At 30 minutes after administration of drug intraperitoneally into mice, each mouse was placed in the field and was monitored for behavior for 30 minutes. Observed items were as follows. Numbers of crossing lines of the grids by mouse were set as “movement score” and numbers of slipping the hindlimbs were set as “falling score”. Each score was measured simultaneously. Ratio of both scores (falling score/movement score) is expressed as “falling index”.
Drugs used were D-serine ethyl ester, 10, 50 and 250 mg/kg, respectively, D-cycloserine, 2, 10 and 50 mg/kg, respectively, and L-serine ethyl ester, 250 mg/kg. Physiological saline was used as control. Each drug and saline were administered intraperitoneally.

[2] = test system: genetic mutant ataxia mice, reeler mice; experiment: Effect on genetic mutant ataxia mice (reeler mice), open-field test; format: in vivo; conditions: 250 mg/kg i.p., mean ± standard error
Experimental: as §1
Genetic mutant ataxia mice, reeler mice (Heckroth, J. A. et al. J. Comp. Neurol., 279, 546-555, 1989 and Hamburgh, Dev. Biol., 8, 165-185, 1963) were purchased from Jackson Laboratory (Bar Harbor, Me., USA). Homozygotes were obtained by mating of heterozygote pairs. The homozygote male mice, 6-7 weeks old, were used for the experiments.
Experimental method for evaluation of ataxia was performed as same as in example 1. In the drug administered group, D-serine ethyl ester 250 mg/kg was administered intraperitoneally. For control group, physiological saline was administered.

[3] = 10 mg/kg i.p., listed as D-Cycloserine
[4] = 50 mg/kg i.p., listed as D-Cycloserine
[5] = 50 mg/kg i.p., listed as D-Serine Ethyl ester
[6] = 250 mg/kg i.p., listed as D-Serine Ethyl ester

Question: For N[C@@H]1CON=C1O [D-cycloserine], which LD50 ([1]; ip) is on record?
Answer: approx. 2,900 mg/kg

Question: And the LD50 ([1]; iv)?
Answer: approx. 1,800 mg/kg

Question: What about the LD50 ([1]; po) of the same compound?
Answer: approx. 5,300 mg/kg

Question: What about the LD50 ([1]; sc) of the same compound?
Answer: approx. 2,800 mg/kg

Question: And the “Falling Index (falling score/movement score)” value (drug induced ataxia mice; 2 mg/kg i.p.)?
Answer: 0.80 ± 0.07

Question: And the “Movement Score” value (drug induced ataxia mice; 2 mg/kg i.p.)?
Answer: 117 ± 54

Question: And the “Falling Index (falling score/movement score)” value (drug induced ataxia mice; 10 mg/kg i.p.)?
Answer: Significant decrease

Question: And the “Movement Score” value (drug induced ataxia mice; 10 mg/kg i.p.)?
Answer: no significant effect

Question: And the “Falling Index (falling score/movement score)” value (drug induced ataxia mice; [3])?
Answer: 0.69 ± 0.09

Question: What about the “Movement Score” value (drug induced ataxia mice; [3]) of the same compound?
Answer: 194 ± 71

Question: And the “Falling Index (falling score/movement score)” value (drug induced ataxia mice; 50 mg/kg i.p.)?
Answer: Significant decrease

Question: What about the “Movement Score” value (drug induced ataxia mice; 50 mg/kg i.p.) of the same compound?
Answer: no significant effect

Question: What about the “Falling Index (falling score/movement score)” value (drug induced ataxia mice; [4]) of the same compound?
Answer: 0.62 ± 0.04

Question: And the “Movement Score” value (drug induced ataxia mice; [4])?
Answer: 286 ± 98

Question: What about the “improved action on ataxia” value (drug induced ataxia mice; below 50 mg/kg (i.p.) in mice) of the same compound?
Answer: dose dependent manner

Question: Which “Falling Index (falling score/movement score)” value [2] does the source give for CCOC(=O)[C@H](N)CO [D-serine ethyl ester] here?
Answer: Improved effect on ataxia

Question: And the “Movement Score” value [2]?
Answer: No effect

Question: And the “Falling Index (falling score/movement score)” value ([2]; listed as D-Serine Ethyl ester)?
Answer: 0.24 ± 0.05

Question: What about the “Movement Score” value ([2]; listed as D-Serine Ethyl ester) of the same compound?
Answer: 232 ± 66

Question: What about the “Falling Index (falling score/movement score)” value (drug induced ataxia mice; 10 mg/kg i.p.) of the same compound?
Answer: 0.88 ± 0.09

Question: What about the “Movement Score” value (drug induced ataxia mice; 10 mg/kg i.p.) of the same compound?
Answer: 386 ± 113

Question: And the “Falling Index (falling score/movement score)” value (drug induced ataxia mice; 50 mg/kg i.p.)?
Answer: Significant decrease

Question: And the “Movement Score” value (drug induced ataxia mice; 50 mg/kg i.p.)?
Answer: no significant effect

Question: What about the “Falling Index (falling score/movement score)” value (drug induced ataxia mice; [5]) of the same compound?
Answer: 0.66 ± 0.08

Question: And the “Movement Score” value (drug induced ataxia mice; [5])?
Answer: 366 ± 96

Question: And the “Falling Index (falling score/movement score)” value (drug induced ataxia mice; 250 mg/kg i.p.)?
Answer: Significant decrease

Question: And the “Movement Score” value (drug induced ataxia mice; 250 mg/kg i.p.)?
Answer: no significant effect

Question: And the “Falling Index (falling score/movement score)” value (drug induced ataxia mice; [6])?
Answer: 0.56 ± 0.06

Question: And the “Movement Score” value (drug induced ataxia mice; [6])?
Answer: 412 ± 99

Question: For CCOC(=O)[C@@H](N)CO [L-serine ethyl ester], which “Falling Index (falling score/movement score)” value (drug induced ataxia mice; 250 mg/kg i.p.) is on record?
Answer: No improved action on ataxia

Question: And the “Movement Score” value (drug induced ataxia mice; 250 mg/kg i.p.)?
Answer: 129 ± 27

Question: What about the “Falling Index (falling score/movement score)” value (drug induced ataxia mice; 250 mg/kg i.p., listed as L-Serine Ethyl ester) of the same compound?
Answer: 0.80 ± 0.06
